# Reference: EP4663632A1, “COMPOUNDS USEFUL FOR THE MODULATION OF THE ACTIVITY OF STING” (Sulis Therapeutics ApS, priority 2024, dated 2025)
# Key:
# [1] = target: C-terminal domain (CTD) of human STING (Homo sapiens, UniProt Q86WV6); experiment: STING binding FP assay II; parameters: recombinant human STING protein (155-379); conditions: 7 nM STING
# [2] = target: T1, STING (Mus musculus, UniProt Q3TBT3); experiment: IFN-β secretion from mouse RAW264.7 cells treated with diABZI; assay type: cell-based; parameters: endogenous in cells; host or cells: RAW264.7 mouse cells; conditions: 1.8 µM diABZI c3 and 0.05 µM Example compound
# T1 sequence (Q3TBT3 1-378): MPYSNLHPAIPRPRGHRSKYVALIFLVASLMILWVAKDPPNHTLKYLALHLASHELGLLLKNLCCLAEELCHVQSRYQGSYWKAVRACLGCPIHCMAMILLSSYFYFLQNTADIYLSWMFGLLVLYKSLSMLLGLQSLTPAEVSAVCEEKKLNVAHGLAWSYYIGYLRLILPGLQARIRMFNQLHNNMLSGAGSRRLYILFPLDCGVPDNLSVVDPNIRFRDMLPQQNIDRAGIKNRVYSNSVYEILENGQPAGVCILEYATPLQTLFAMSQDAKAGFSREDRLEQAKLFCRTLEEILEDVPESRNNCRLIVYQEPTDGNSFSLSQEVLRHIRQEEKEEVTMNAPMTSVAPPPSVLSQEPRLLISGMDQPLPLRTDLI
# Protocol: As expected, RAW264.7 cells treated with 1.8 µM diABZI c3 increased IFN-β secretion, resulting in a media concentration of around 1000 pg/mL. In contrast, cells treated with 1.8 µM diABZI c3 and 0.05 µM Example compounds 14, 16 or 24 reduced this expression to approximately 500 pg/mL.
# [3] = target: T2, STING (Homo sapiens, UniProt Q86WV6); experiment: Inhibition of STING-agonist-induced IFN-β release in HFF-1 cells (HFF-1 STING inhibition assay); assay type: cell-based; parameters: host or cells: HFF-1 human foreskin fibroblasts; conditions: 24h with compound, then 0.3 µM diABZI c3, 6h; ELISA
# Protocol: To evaluate cellular effects of test compounds, we assessed inhibition of STING-agonist-induced IFN-β release in human foreskin fibroblasts HFF-1 cells (ATCC, SCRC-1041). Cells were seeded at a density of 10.000 cells/well in 96-well Nunclon Delta surface treated culture plate in DMEM growth medium (supplemented with 10% FBS, 1% Pen-strep). Cells were incubated over-night at 37°C 5% CO2 to allow adhesion. Next morning growth medium was renewed and a 7x concentration 3-step dilution series of test compounds (2,1% DMSO) diluted in growth medium were added to the appropriate well. Final DMSO concentration was 0.3%. […] Cells culture plates were further incubated, and supernatants were harvested after 6h and immediately stored at -20°C until determination of IFN-β release. Cell supernatants were analysed for IFN-β release using DuoSet human IFN-β ELISA (R&D systems, DY-814) following manufactures protocol except using 96-well, half-volume plates from Corning and subsequently use half volume for all steps throughout the protocol. In brief, plates were coated o/n with a 130x dilution of capturing antibody in PBS. Wells were washed 3x with PBS-T20 followed by blocking with 1% BSA diluted in TBS-T20 for 1h. […] Wells were washed 3x with PBS-T20 and detection antibody diluted 1:60 in 1% BSA in PBS was added to each well and incubated for 2h at rt. […]
# [4] = target: T2, STING; experiment: Western Blot analysis of STING phosphorylation in human fibroblast cells (STING agonism); assay type: cell-based; parameters: host or cells: HFF-1 human foreskin fibroblasts; conditions: 7.2µM-3.6nM; 24h
# Protocol: Human fibroblast were treated with a titration of E22, E9, E14 and E16 (7.2µM-3.6nM) for 24h prior to cell lysis and subsequently total STING, pSTING and Vinculin were assessed by western blot using rabbit anti-STING (1:1000), anti-pSTING (1:1000), anti-Vinculin (1:1000) and 2nd anti-rabbit-HRP (1:10.000) or anti-mouse-HRP (1:7500). Proteins were visualized using ImageQuant800. Control cells included untreated cells and cells treated with 300nM diABZI C3.
# T2 sequence (Q86WV6 whole entry): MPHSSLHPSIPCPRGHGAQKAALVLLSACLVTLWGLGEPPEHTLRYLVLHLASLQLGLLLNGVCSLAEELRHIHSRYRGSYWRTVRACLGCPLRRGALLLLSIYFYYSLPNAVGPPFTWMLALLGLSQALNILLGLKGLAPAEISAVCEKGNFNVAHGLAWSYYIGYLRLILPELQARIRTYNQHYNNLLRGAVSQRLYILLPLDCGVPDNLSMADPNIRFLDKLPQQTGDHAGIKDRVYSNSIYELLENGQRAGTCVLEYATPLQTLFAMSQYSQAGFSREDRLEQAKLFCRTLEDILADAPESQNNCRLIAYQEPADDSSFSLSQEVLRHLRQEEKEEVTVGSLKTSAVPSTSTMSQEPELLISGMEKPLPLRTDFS
# Chain of C-terminal domain (CTD) of human STING (Q86WV6 155-379): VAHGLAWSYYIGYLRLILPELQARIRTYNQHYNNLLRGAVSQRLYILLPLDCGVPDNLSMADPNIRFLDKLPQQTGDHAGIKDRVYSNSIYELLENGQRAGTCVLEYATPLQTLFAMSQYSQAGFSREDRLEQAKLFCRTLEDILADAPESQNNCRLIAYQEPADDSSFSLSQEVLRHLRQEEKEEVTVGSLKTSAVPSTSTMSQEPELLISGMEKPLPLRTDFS
IC50 [1],IFN-β media concentration [2],EC50 [3],STING phosphorylation (pSTING) [4],SMILES,total STING protein levels [4]
5.7 nM,approximately 500 pg/mL,1000 to 5000 nM,no STING phosphorylation was observed,CCn1nc(C)cc1C(=O)N=c1n(C)c2cc(C(N)=O)ccc2n1CCC(CCn1c(=NC(=O)c2cc(C)nn2CC)n(C)c2cc(C(N)=O)ccc21)OCC(=O)NCCOCCOCCOCCOCCC(=O)NCCOCCOCCOCCOCC(=O)N[C@H](C(=O)N1C[C@H](O)C[C@H]1C(=O)NCc1ccc(-c2scnc2C)cc1)C(C)(C)C (stereo partly shown) [Example 14],total STING protein levels were observed to decrease
4.5 nM,approximately 500 pg/mL,< 200 nM,no STING phosphorylation was observed,CCn1nc(C)cc1C(=O)N=c1n(C)c2cc(C(N)=O)ccc2n1CCC(CCn1c(=NC(=O)c2cc(C)nn2CC)n(C)c2cc(C(N)=O)ccc21)OCC(=O)NCCOCCOCCOCCOCCC(=O)NCCOCCOCCOCCOCCNc1cccc2c1C(=O)N(C1CCC(=O)NC1=O)C2=O (stereo not shown) [Example 16],total STING protein levels were observed to decrease
